Assay results: patent US6509365B1, “2-phenylbenzimidazoles and 2-phenylindoles, and production and use thereof” (BASF Aktiengesellschaft, priority 1998, dated 2003)

Key:
circulatory shock = conditions: S. Cuzzocrea et al., Br. J. Pharmacol. 1997; cited from earlier work
[1] = target: T1, PARP enzyme present in the cells (human cell line C4I) (Homo sapiens, UniProt P09874); experiment: Test of PARP inhibitors in a cellular assay (H2O2-induced PAR formation, immunofluorescence); format: cell-based; conditions: 1 mM hydrogen peroxide, FITC signal standardized to DAPI
T1 construct: endogenous in cells; host or cells: human cell line C4I
T1 sequence (P09874 whole entry): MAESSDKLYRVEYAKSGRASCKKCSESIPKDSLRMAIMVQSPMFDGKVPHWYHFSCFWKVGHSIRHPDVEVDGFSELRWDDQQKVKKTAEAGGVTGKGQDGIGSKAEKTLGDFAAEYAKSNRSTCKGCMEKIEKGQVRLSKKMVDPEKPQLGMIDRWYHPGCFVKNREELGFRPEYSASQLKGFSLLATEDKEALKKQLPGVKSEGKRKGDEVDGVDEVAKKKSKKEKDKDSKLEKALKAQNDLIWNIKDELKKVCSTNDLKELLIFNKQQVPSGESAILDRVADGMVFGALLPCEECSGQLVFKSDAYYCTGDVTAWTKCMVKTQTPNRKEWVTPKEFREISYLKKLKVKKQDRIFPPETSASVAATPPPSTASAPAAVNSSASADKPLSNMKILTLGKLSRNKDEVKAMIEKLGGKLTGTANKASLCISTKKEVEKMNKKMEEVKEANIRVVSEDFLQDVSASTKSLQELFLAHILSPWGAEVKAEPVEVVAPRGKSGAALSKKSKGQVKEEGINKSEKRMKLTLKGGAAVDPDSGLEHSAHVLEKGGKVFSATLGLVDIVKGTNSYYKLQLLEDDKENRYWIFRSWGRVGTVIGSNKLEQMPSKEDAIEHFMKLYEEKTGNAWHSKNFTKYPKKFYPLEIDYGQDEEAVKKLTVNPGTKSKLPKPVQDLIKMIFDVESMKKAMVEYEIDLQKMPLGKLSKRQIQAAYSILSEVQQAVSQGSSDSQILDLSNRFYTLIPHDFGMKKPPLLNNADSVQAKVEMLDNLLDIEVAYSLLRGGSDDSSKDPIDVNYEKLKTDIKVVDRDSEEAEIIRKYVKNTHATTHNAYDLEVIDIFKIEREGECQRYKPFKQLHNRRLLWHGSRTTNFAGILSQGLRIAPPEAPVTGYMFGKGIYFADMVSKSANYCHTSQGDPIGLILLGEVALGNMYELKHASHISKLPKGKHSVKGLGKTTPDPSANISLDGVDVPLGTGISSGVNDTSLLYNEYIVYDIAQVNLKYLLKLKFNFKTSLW
Protocol: To test the action of PARP inhibitors, eukaryotic cell lines are treated with chemicals such that the DNA of the cell line is damaged and as a result the PARP enzyme present in the cells is activated. Due to the activation of the enzyme, chains of poly-ADP-ribose (PAR) are formed on proteins. These chains are bound by a specific antibody. This is in turn bound by a second antibody which is provided with a fluorescent label. The fluorescence is measured using a fluorescence scanner and behaves proportionately to the activity of the enzyme PARP. PARP inhibitors can be recognized by a weakening of the fluorescence signal. In order to prevent adulterations of the results by different cell counts, the DNA of the cells is labeled with a further dye and its fluorescence is likewise determined in the fluorescence scanner.
400,000 cells of the human cell line C4I are incubated at 37° C., 5% CO2 with 10% fetal bovine serum in RPMI medium in cell culture plates having 24 cavities until a thick cell lawn is obtained. The cells are washed with DMEM and the PARP inhibitors to be tested are added in various concentrations in DMEM. After incubation for 20 min at 37° C., a concentration of 1 mM is established using hydrogen peroxide and the mixture is incubated at 37° C. for a further 10 min. For the control, cells in some cavities are not treated with hydrogen peroxide (no PARP activation) or receive no inhibitor (maximal PARP activation). The cells are washed once with PBS and fixed at −20° C. for 10 min by addition of methanol/acetone mixture which is precooled to −20° C. (7 parts methanol, 3 parts acetone). The cells are then dried, rehydrated at room temperature for 10 min by addition of PBS, and nonspecific binding sites are blocked for 30 min at room temperature in PBS with 0.05% Tween 20 and 5% dried milk powder. […] The FITC and DAPI fluorescence is measured at several sites in the cavities with the aid of a fluorescence scanner. […] The IC50 values are calculated by semilogarithmic plotting of the standardized values of the various inhibitor concentrations.

[2] = Determination of the water solubility; format: physicochemical; conditions: pH 5 to 6 adjusted with sodium acetate solution, DMSO ≦1% if not a water-soluble salt
Protocol: A compound to be measured is dissolved directly in a specified volume of water and the resulting solution is adjusted to pH 5 to 6 using a sodium acetate solution so that the concentration of the active compound to be tested is achieved. If the measured substance is not present as a water-soluble salt, this was dissolved in as little dimethyl sulfoxide as possible and then diluted with water (final concentration of dimethyl sulfoxide ≦1%), after which the pH was additionally adjusted here too.

IC50 [1]	Structure (SMILES)	also measured
	NC(=O)c1cccc(N)c1 [3-aminobenzamide]	protective effects in a model for circulatory shock (circulatory shock): protective effects
115 nM	CCN(CC)CCN(C)c1ccc(-c2nc3c(C(N)=O)cccc3[nH]2)cc1 [Example 1]	
119 nM	CN(C)CCN(C)c1ccc(-c2nc3c(C(N)=O)cccc3[nH]2)cc1 [Example 2]	
118 nM	CN(C)CCc1cc(-c2nc3c(C(N)=O)cccc3[nH]2)ccc1[N+](=O)[O-] [Example 3]	
	COc1ccc(-c2nc3cccc(C(N)=O)c3[nH]2)cc1 [NU 1076]	solubility [2]: < 0.01%
